Assay results reported in the CheMixHub ionic liquid set.

Test: xn = mol fraction of the nth substance listed

CC[n+]1ccccc1.[Cl-] + CCCC[n+]1ccccc1.[Br-]
viscosity [mPa·s], 101 kPa
Details	x1 = 0.118	x1 = 0.197	x1 = 0.318	x1 = 0.384	x1 = 0.492	x1 = 0.585	x1 = 0.686	x1 = 0.81	x1 = 0.902
373.1 K	–	–	–	61	54.1	48.8	43.7	38	–
378.1 K	–	–	53.6	50.2	44.7	40.6	36.5	32	–
383.1 K	53.8	49.7	44	41.4	37.1	33.8	30.6	27.1	–
388.1 K	44	40.8	36.4	34.3	31	28.4	25.8	23	20.9
393.1 K	36.2	33.7	30.3	28.6	26	24	21.9	19.7	18
398.1 K	30	28.1	25.4	24.1	22	20.4	18.8	17	15.59
403.1 K	25.1	23.6	21.5	20.5	18.8	17.5	16.19	14.73	13.59
408.1 K	21.2	20.1	18.4	17.5	16.2	15.19	14.08	12.9	11.96
413.1 K	18.2	17.2	15.87	15.16	14.1	13.27	12.36	11.39	10.58
418.1 K	15.69	14.92	13.82	13.25	12.37	11.7	10.93	10.12	9.43
423.1 K	13.69	13.06	12.15	11.69	10.96	10.4	9.75	9.08	8.49
428.1 K	12.07	11.55	10.79	10.4	9.79	9.32	8.77	8.21	7.68
433.1 K	10.76	10.32	9.68	9.35	8.83	8.44	7.96	7.48	7.02
438.1 K	9.69	9.31	8.77	8.48	8.04	7.7	7.29	6.88	6.46
443.1 K	8.82	8.5	8.03	7.78	7.39	7.11	6.74	6.38	6

CC[n+]1ccccc1.[Cl-] + CCCC[n+]1ccccc1.[Cl-]
101 kPa
Details	viscosity [mPa·s]
388.1 K, x1 = 0.804	23.2
393.1 K, x1 = 0.504	27.4
393.1 K, x1 = 0.804	19.8
398.1 K, x1 = 0.504	23.4
398.1 K, x1 = 0.702	18.5
398.1 K, x1 = 0.804	17
403.1 K, x1 = 0.804	14.67
408.1 K, x1 = 0.198	22.8
413.1 K, x1 = 0.198	19.7
413.1 K, x1 = 0.795	11.06
418.1 K, x1 = 0.504	13.42
423.1 K, x1 = 0.388	12.25
428.1 K, x1 = 0.702	8.33
428.1 K, x1 = 0.795	7.76
433.1 K, x1 = 0.597	8.38
438.1 K, x1 = 0.302	9.51
438.1 K, x1 = 0.702	6.8
443.1 K, x1 = 0.504	8.1
443.1 K, x1 = 0.804	6.06

CO + CCCC[n+]1ccn(C)c1.F[B-](F)(F)F
101 kPa, x1 = 1
Details	viscosity [mPa·s]
303.15 K	0.519
333.15 K	0.363

ClCCl + CCCC[n+]1ccn(C)c1.F[B-](F)(F)F
298.15 K
Details	electrical conductivity, 101 kPa [S/m]	viscosity, 101 kPa [mPa·s]	viscosity, 101.33 kPa [mPa·s]
x1 = 0.1	0.265	85	–
x1 = 0.1923	0.348	63.1	–
x1 = 0.2841	0.45	46.1	–
x1 = 0.3884	0.592	31.2	–
x1 = 0.4507	–	–	14.3
x1 = 0.4878	0.772	20	–
x1 = 0.5882	0.99	12.3	–
x1 = 0.6897	1.18	6.73	–
x1 = 0.756	1.26	4	–
x1 = 0.8395	1.18	1.96	–

ClCCl + CCCC[n+]1ccn(C)c1.F[P-](F)(F)(F)(F)F
298.15 K, 101 kPa
Details	electrical conductivity [S/m]	viscosity [mPa·s]
x1 = 0.2451	0.394	89
x1 = 0.4351	0.731	34.7

c1ccccc1 + CCCC[n+]1ccn(C)c1.N#C[S-]
100 kPa, x1 = 1
Details	viscosity [mPa·s]
298.15 K	0.605
308.15 K	0.527
318.15 K	0.466
328.15 K	0.363

CO + CCCC[n+]1ccn(C)c1.O=S(=O)([N-]S(=O)(=O)C(F)(F)F)C(F)(F)F
Details	viscosity [mPa·s]
298 K, 100 kPa, x2 = 0	0.534

ClCCl + CCCC[n+]1ccn(C)c1.O=S(=O)([N-]S(=O)(=O)C(F)(F)F)C(F)(F)F
298 K, 101 kPa
Details	electrical conductivity [S/m]
x1 = 0.8744	1.36
x1 = 0.9287	0.98
x1 = 0.9459	0.797

c1ccccc1 + CCCC[n+]1ccn(C)c1.O=S(=O)([O-])C(F)(F)F
100 kPa, x1 = 1
Details	viscosity [mPa·s]
308.15 K	0.527
318.15 K	0.466

CO + CCCC[n+]1ccn(C)c1.[Cl-]
Details	viscosity [mPa·s]
308.15 K, 101 kPa, x1 = 1	0.49

C=CC[n+]1ccn(C)c1.O=S(=O)([N-]S(=O)(=O)C(F)(F)F)C(F)(F)F + CCCO
298.15 K, 100 kPa
Details	viscosity [mPa·s]
x1 = 0.2	5.11
x1 = 0.5	10.41
x1 = 0.7	16.23
x1 = 0.8	20.34
x1 = 0.9	25.56

CC(O)C(=O)[O-].C[N+](C)(C)CCO + CCCO + O
100 kPa, x1 = 0.00408, x2 = 0.5431
Details	viscosity [mPa·s]
288.15 K	3.551
298.15 K	2.585
308.15 K	1.943

CC(O)C(=O)[O-].C[N+](C)(C)CCO + CCO
101 kPa
Details	viscosity [mPa·s]
293.15 K, x2 = 0.2996	225.4
293.15 K, x2 = 0.7013	17.75
293.15 K, x2 = 0.7987	8.579
298.15 K, x2 = 0.7987	7.357
303.15 K, x2 = 0.601	25.96
303.15 K, x2 = 0.8996	2.853
308.15 K, x2 = 0.2011	144.8
318.15 K, x2 = 0	158.7
318.15 K, x2 = 0.601	15.05
323.15 K, x2 = 0.1039	91.6
323.15 K, x2 = 0.5003	20.51
323.15 K, x2 = 0.7987	3.792
328.15 K, x2 = 0.1039	72.67
328.15 K, x2 = 0.601	11.1
328.15 K, x2 = 0.7987	3.387
333.15 K, x2 = 0.1039	58.6
333.15 K, x2 = 0.601	9.667
338.15 K, x2 = 0.3999	19.08

CCCC[n+]1ccn(C)c1.[I-] + CCO
298.15 K, 100 kPa
Details	electrical conductivity [S/m]
x1 = 0.009029	0.254
x1 = 0.1006	1.47
x1 = 0.2076	1.74

CC[n+]1ccn(C)c1.COP(=O)([O-])OC + CCO
Details	viscosity [mPa·s]
293.15 K, 100 kPa, x1 = 0.7006	121.4
298.15 K, 100 kPa, x1 = 0.5013	37.58
298.15 K, 100 kPa, x1 = 0.7006	95.5
298.15 K, 100 kPa, x1 = 0.8011	141.3
298.15 K, 101 kPa, x2 = 0.398	68.8
298.15 K, 101 kPa, x2 = 0.598	23.29
303.15 K, 100 kPa, x1 = 0.3007	10.67
303.15 K, 100 kPa, x1 = 0.5994	48.5
303.15 K, 101 kPa, x2 = 0.398	55.24
308.15 K, 100 kPa, x1 = 1	134.2
308.15 K, 101 kPa, x2 = 0.798	4.904
313.15 K, 100 kPa, x1 = 0.3007	8.34
313.15 K, 100 kPa, x1 = 0.5994	31.82
313.15 K, 100 kPa, x1 = 1	102.6
318.15 K, 100 kPa, x1 = 0.3007	7.45
318.15 K, 101 kPa, x2 = 0.398	31.25
318.15 K, 101 kPa, x2 = 0.598	12.92
323.15 K, 100 kPa, x1 = 0.5013	15.7
323.15 K, 100 kPa, x1 = 0.8011	38.59
328.15 K, 100 kPa, x1 = 0.7006	25.53
328.15 K, 101 kPa, x2 = 0.199	38.21
333.15 K, 100 kPa, x1 = 0.1004	1.71
333.15 K, 100 kPa, x1 = 0.7006	21.5
333.15 K, 100 kPa, x1 = 1	41.05
338.15 K, 100 kPa, x1 = 0.8988	26.44

CC[n+]1ccn(C)c1.O=S(=O)([N-]S(=O)(=O)C(F)(F)F)C(F)(F)F + CCOC(C)=O
100 kPa
Details	viscosity [mPa·s]
303.15 K, x2 = 0.2977	12.85
303.15 K, x2 = 0.3962	9.43
303.15 K, x2 = 0.5961	4.75
303.15 K, x2 = 0.7974	1.97
303.15 K, x2 = 0.8979	0.88
308.15 K, x2 = 0	23.29
308.15 K, x2 = 0.2977	11.24
313.15 K, x2 = 0.3962	7.36
313.15 K, x2 = 0.5051	5.15
318.15 K, x2 = 0.1858	11.49
318.15 K, x2 = 0.3962	6.49
318.15 K, x2 = 0.5051	4.36
318.15 K, x2 = 0.8979	0.73
323.15 K, x2 = 0.6909	2.05

CC[n+]1ccn(C)c1.O=S(=O)([N-]S(=O)(=O)C(F)(F)F)C(F)(F)F + CCOS(=O)(=O)[O-].CC[n+]1ccn(C)c1
298.15 K, 100 kPa
Details	viscosity [mPa·s]
x1 = 0.1042	95.6
x1 = 0.2975	84.1

CC[n+]1ccccc1.[Cl-] + CC[n+]1ccccc1.[Br-]
101 kPa
Details	viscosity [mPa·s]
418.1 K, x1 = 0.196	9.57
418.1 K, x1 = 0.613	9.2
423.1 K, x1 = 0.196	8.73
423.1 K, x1 = 0.303	8.64
423.1 K, x1 = 0.613	8.37
423.1 K, x1 = 0.885	8.17
428.1 K, x1 = 0.303	7.88
428.1 K, x1 = 0.688	7.61
433.1 K, x1 = 0.503	7.14
438.1 K, x1 = 0.613	6.53
